From ChEMBL document CHEMBL5113424, “Identification of small-molecule urea derivatives as PTPC modulators targeting the c subunit of F1/Fo-ATP synthase” (Bioorg Med Chem Lett, 2022)
Activity calls are given as the source filed them. The rule behind the calls is not given here.

These molecules were tested on AC16 [Human hybrid] (assay: Inhibition of PTPC in human AC16 cells at 1 uM measured by calcein-cobalt assay relative to control). Conditions: not given.
Assay type: cell-based
Work on N#Cc1ccc(NC(=O)Nc2ccc(C#N)cc2)cc1 yielded an inhibition of 25.4%.
O=C(NC1CC1)NC1CC1 gave an inhibition of 3.87%.
In the case of O=C(NC1CCCC1)NC1CCCC1, the inhibition was 16.4%.
O=C(Nc1ccccc1)Nc1ccccc1 showed an inhibition of 28.1%.
Molecule COc1ccc(NC(=O)Nc2ccccc2)cc1 has an inhibition of 4.6%.
CC(C)(C)NC(=O)NC1CCCCC1 gave an inhibition of 43.2%.
With CCOC(=O)c1ccc(NC(=O)Nc2ccc(C(=O)OCC)cc2)cc1 the inhibition was 9.75%.
In the case of O=C(NC1CCCCC1)NC1CCCCC1, the inhibition was 28%.
C(=NC1CCCCC1)=NC1CCCCC1 was tested, and the inhibition was “Active”.

Organism: Homo sapiens
Test: Binding affinity to F1F0-ATP synthase subunit C (unknown origin) measured by cellular thermal shift assay (CETSA)
Conditions: not given
For O=C(NC1CCCCC1)NC1CCCCC1, the Activity was “Active”.

What follows are molecules tested on AC16 [Human hybrid] (assay: Activation of PTPC in human AC16 cells at 1 uM measured by calcein-cobalt assay relative to control). Conditions: not given.
Assay type: cell-based
S=C(NC1CCCCC1)NC1CCCCC1 gave an inhibition of 32.4%.
For S=C(NCc1ccccc1)NCc1ccccc1, the inhibition was 37.2%.
S=C(Nc1ccccc1)NC1CCCCC1 was tested, and the inhibition was 3%.
Work on O=C(NCc1ccccc1)NCc1ccccc1 yielded an inhibition of 30.4%.

Same assay, conditions: filed as activator
For CC(C)(C)OC(=O)NC1CCCCC1, the inhibition was 42.5%.
With COc1ccc(NC(=O)Nc2ccc(OC)cc2)cc1 the inhibition was 53.6%.
